{"source": "patent US20100221763A1", "about": "“Specific Acceptors for Transferases to Saccharides and Method for Obtaining and Using Same” (Health Research, Inc, priority 2005, published 2010)", "key": {"[1]": {"system": "α1,2-L-FT of breast tumor BC9400", "experiment": "α1,2-L-FT assay, breast tumor extract", "type": "biochemical, human", "details": "1 mg protein of the tissue extract", "method": "(§1) Colon tumor tissue (CC9338) and breast tumor tissue (BC9400) were obtained during surgical procedures at Roswell Park Cancer Institute and stored frozen within 1 h at −70° C. The tissues were homogenized at 4° C. with 4 volumes of 0.1M Tris Maleate […] 0.1% NaN3 using kinematica. After adjusting the concentration of Triton X-100 to 2%, these homogenates were mixed in the cold room for 1 h using Speci-Mix (Thermolyne) and then centrifuged at 20,000 g for 1 h at 4° C. The clear fat-free supernatant was stored frozen at −20° C. until use. Aliquots of 10 μL from this extract were used in assays run in duplicates. Glycosyltransferase activity in cell lysate was determined by mixing the lysates with acceptor and radiolabeled donor (monosaccharide) under the reaction conditions detailed below, followed by separation of un-reacted donor from the radioactive product using anionic or hydrophobic chromatography. In all cases, the radioactive content of isolated products was determined by using 3a70 scintillation cocktail (Research Products International, Mount Prospect, Ill.) and a Beckman LS6500 scintillation counter. Controls for each assay contained the reaction mixture with everything except the acceptor. All assays were run in duplicate.\n(§2) α1,2, α1,6-, α1,3- and α1,4-fucosyltransferase (FT) assay reactions were carried out for 2 h in a reaction mixture containing 50 mM Hepes buffer (pH 7.5), 5 mM MnCl2, 7 mM ATP, 3 mM NaN3, 3 mM synthetic acceptor or 40 μg of fetuin-based acceptor, 0.05 μCi GDP-[14C]Fuc (290 mCi/mmol) and 10 μl cell extract in a total volume of 20 μl [Chandrasekaran et al., 1996]. Sulfotransferase (Sulfo T) assay reactions took 2 h and required a mixture containing 100 mM Tris-maleate (pH 7.2), 5 mM Mg Acetate, 5 mM ATP, 10 mM NaF, 10 mM BAL, 7.5 mM acceptor, 0.5 μCi of [^35S]PAPS (specific activity 2.4 Ci/mmol) and 10 μl of cell extract in a total volume of 30 μl [Chandrasekaran et al., 2004].\n(§3) Dowex-1-C1 or Sep-Pak C18 cartridges were used to isolate radiolabeled product from the reaction mixture. For GalT, GalNAc-T and FT assays, the incubation mixture was diluted with 1 ml water and passed through a 1 ml Dowex-1-C1 column [Chandrasekaran et al., 1996; Chandrasekaran et al., 2001]. The column was washed twice with 1 ml of water. The breakthrough and the water wash contained the [^14C]-galactosylated or [^14C]-fucosylated products formed with neutral acceptors. 3 ml of 0.1M NaCl was used to obtain [^14C]-fucosylated products from sialylated acceptors after water elution. For sialytransferase assays, the radioactive products from benzylglycosides were separated by hydrophobic chromatography on Sep-Pak C18 cartridge (Waters, Milford, Mass.), and elution of the product was done with 3 ml methanol [Palcic et al., 1988]. […]"}, "[2]": {"system": "α1,2-L-FT of colon tumor CC9338", "experiment": "α1,2-L-FT assay, colon tumor extract", "type": "biochemical, human", "details": "1 mg protein of the tissue extract", "method": "as §1, §2, §3"}, "[3]": {"system": "α1,2-L-FT plus α1,4-L-FT of breast tumor BC9400", "experiment": "α1,2-L-FT plus α1,4-L-FT assay, breast tumor extract", "type": "biochemical, human", "details": "1 mg protein of the tissue extract", "method": "as §1, with “duplicate. […]” for “duplicate.”"}, "[4]": {"molecular_target": "T1, Rat recombinant α2,3(O)ST (Rattus norvegicus, UniProt Q11205)", "T1 construct": "purchased Calbiochem", "T1 sequence (Q11205 1-350)": "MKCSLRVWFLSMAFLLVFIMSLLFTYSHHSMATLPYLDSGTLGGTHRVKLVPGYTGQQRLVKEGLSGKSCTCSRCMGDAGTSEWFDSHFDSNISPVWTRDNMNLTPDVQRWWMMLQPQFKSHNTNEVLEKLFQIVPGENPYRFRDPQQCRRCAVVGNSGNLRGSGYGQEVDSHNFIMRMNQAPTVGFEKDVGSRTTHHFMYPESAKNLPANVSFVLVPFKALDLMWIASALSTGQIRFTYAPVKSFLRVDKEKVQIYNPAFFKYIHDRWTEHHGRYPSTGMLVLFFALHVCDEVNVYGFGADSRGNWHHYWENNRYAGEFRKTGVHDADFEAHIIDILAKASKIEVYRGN", "experiment": "Sialyltransferase assay with cloned α2,3(O)ST", "type": "biochemical", "details": "Table I; acceptor 7.5 mM; 100% = 40560 CPM (3-O-MeGalβ1,4GlcNAcβ1,6(Galβ1,3)GalNAcα-O-Bn)"}, "[5]": {"system": "α1,2-L-FT plus α1,4-L-FT of colon tumor CC9338", "experiment": "α1,2-L-FT plus α1,4-L-FT assay, colon tumor extract", "type": "biochemical, human", "details": "1 mg protein of the tissue extract", "method": "as §1, with “duplicate. […]” for “duplicate.”"}, "[6]": {"system": "LNCaP α2,3(O)ST", "experiment": "Sialyltransferase assay with LNCaP cell extract", "type": "biochemical, human", "details": "Table I; acceptor 7.5 mM; 100% = 30930 CPM (3-O-MeGalβ1,4GlcNAcβ1,6(Galβ1,3)GalNAcα-O-Bn)", "in_short": "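LNCaP Triton X-100 extract (5 mg protein/ml; 0.1M Tris-maleate pH6.3) incubated with acceptor (typically 7.5 mM) and CMP-[9-3H]NeuAc (typically 0.2 μCi) in 0.1M Na cacodylate pH6.0, 2 h at 37 °C, in duplicate. Radioactive product separated on Dowex-1-formate, Sep-Pak C18 or Biogel P2 and counted by scintillation; blank without acceptor subtracted.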"}, "[7]": {"system": "Siglec 4 (MAG)", "details": "Blixt et al. (49); cited from earlier work"}, "[8]": {"molecular_target": "L-Selectin (Homo sapiens, UniProt P14151)", "sequence (P14151 39-372, species assumed)": "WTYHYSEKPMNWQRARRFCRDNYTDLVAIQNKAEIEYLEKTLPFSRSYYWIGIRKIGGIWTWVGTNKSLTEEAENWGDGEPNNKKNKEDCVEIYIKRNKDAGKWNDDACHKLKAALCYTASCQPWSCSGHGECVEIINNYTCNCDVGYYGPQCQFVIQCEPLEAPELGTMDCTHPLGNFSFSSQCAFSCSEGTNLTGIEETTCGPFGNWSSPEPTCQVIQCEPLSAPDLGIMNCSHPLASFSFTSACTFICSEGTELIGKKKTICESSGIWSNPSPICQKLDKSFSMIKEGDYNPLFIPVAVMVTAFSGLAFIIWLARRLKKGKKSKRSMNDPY", "details": "compared to NeuAcα2,3Galβ1,4(Fucα1,3)GlcNAcβ-O-Me (sialyl Lewis-x); cited from earlier work"}, "[9]": {"molecular_target": "P-Selectin (Homo sapiens, UniProt P16109)", "sequence (P16109 42-830, species assumed)": "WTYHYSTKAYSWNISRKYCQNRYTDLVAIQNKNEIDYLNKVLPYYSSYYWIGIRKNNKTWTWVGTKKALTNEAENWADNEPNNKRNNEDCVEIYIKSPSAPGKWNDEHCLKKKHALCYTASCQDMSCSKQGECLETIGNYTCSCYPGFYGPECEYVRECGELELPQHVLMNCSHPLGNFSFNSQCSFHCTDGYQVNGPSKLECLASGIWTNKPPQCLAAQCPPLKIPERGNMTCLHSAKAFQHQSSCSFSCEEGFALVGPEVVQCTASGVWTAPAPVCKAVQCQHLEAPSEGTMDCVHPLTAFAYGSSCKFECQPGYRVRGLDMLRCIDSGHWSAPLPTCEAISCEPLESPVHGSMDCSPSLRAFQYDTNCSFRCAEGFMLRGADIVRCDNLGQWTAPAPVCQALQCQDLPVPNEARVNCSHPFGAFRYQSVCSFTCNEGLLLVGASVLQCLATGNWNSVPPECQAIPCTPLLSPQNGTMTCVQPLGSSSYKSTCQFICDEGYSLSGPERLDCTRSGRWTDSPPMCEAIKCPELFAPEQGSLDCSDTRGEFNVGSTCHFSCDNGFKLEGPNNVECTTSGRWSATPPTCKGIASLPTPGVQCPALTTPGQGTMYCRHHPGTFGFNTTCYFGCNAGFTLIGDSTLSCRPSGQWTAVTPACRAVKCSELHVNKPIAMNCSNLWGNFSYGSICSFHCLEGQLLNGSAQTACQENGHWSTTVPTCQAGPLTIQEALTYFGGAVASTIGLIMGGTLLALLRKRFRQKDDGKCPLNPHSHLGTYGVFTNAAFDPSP", "details": "compared to NeuAcα2,3Galβ1,4(Fucα1,3)GlcNAcβ-O-Me (sialyl Lewis-x); cited from earlier work"}}}
{"molecule": "OC[C@H]1O[C@@H](OCc2ccccc2)[C@H](O)[C@@H](O)[C@H]1O", "note": "[Galβ-O-Bn]", "values": [{"measurement": "α1,2-L-FT activity: incorporation of radioactive sugar", "setting": "[1]", "result": 9.8, "unit": "CPM × 10^−3"}, {"measurement": "α1,2-L-FT activity: incorporation of radioactive sugar", "setting": "[2]", "result": 20.6, "unit": "CPM × 10^−3"}]}
{"molecule": "CO[C@@H]1O[C@H](CO)[C@H](O)[C@H](O[C@@H]2O[C@H](CO)[C@@H](O)[C@H](O[C@@H]3O[C@H](CO)[C@H](O)[C@H](O)[C@H]3O)[C@H]2NC(C)=O)[C@H]1O", "note": "[Galβ1,3GlcNAcβ1,3Galβ-O-Me]", "values": [{"measurement": "α1,2-L-FT plus α1,4-L-FT activity: incorporation of radioactive sugar", "setting": "[3]", "result": 16.8, "unit": "CPM × 10^−3"}, {"measurement": "Sialyltransferase activity (%) Cloned α2,3(O)ST", "setting": "[4]", "result": 37.2, "unit": "%"}, {"measurement": "α1,2-L-FT plus α1,4-L-FT activity: incorporation of radioactive sugar", "setting": "[5]", "result": 578.9, "unit": "CPM × 10^−3"}, {"measurement": "Sialyltransferase activity (%) LNCaP α2,3(O)ST", "setting": "[6]", "result": 1.4, "unit": "%"}]}
{"molecule": "CC(=O)NC1C(O)CC(OCC2OC(OC(C)C(N)C(=O)O)C(NC(C)=O)C(OC3OC(CO)C(O)C(OC4(C(=O)O)CC(O)C(NC(C)=O)C(C(O)C(O)CO)O4)C3O)C2O)(C(=O)O)OC1C(O)C(O)CO", "note": "(stereo not shown) [NeuAcα2,3Galβ1,3(NeuAcα2,6)GalNAcα-O-Thr, NeuAcα2,3Galβ1,3 (NeuAcα2,6)GalNAcα-O-Thr]", "values": [{"measurement": "fold more potent than NeuAcα2,6GalNAcα-O-Thr in inhibiting Siglec 4 (MAG) binding", "setting": "[7]", "result": "3,000 fold"}]}
{"molecule": "CC(=O)NC1C(O)CC(OC2C(O)C(CO)OC(OC3C(O)C(CO)OC(OC(C)C(N)C(=O)O)C3NC(C)=O)C2O)(C(=O)O)OC1C(O)C(O)CO", "note": "(stereo not shown) [NeuAcα2,3Galβ1,3GalNAcα-O-Thr]", "values": [{"measurement": "fold more potent than NeuAcα2,6GalNAcα-O-Thr in inhibiting Siglec 4 (MAG) binding", "setting": "[7]", "result": 600, "unit": "fold"}]}
{"molecule": "COC1OC(COC2OC(CO)C(OC3OC(CO)C(O)C(O)C3NC(C)=O)C(OC3OC(C)C(O)C(O)C3O)C2NC(C)=O)C(O)C(OC2OC(CO)C(O)C(OC3(C(=O)O)CC(O)C(NC(C)=O)C(C(O)C(O)CO)O3)C2O)C1NC(C)=O", "note": "(stereo not shown) [GalNAcβ1,4(Fucα1,3)GlcNAcβ1,6(NeuAcα2,3Galβ1,3) GalNAcα-O-Me]", "values": [{"measurement": "fold better inhibitor of L-Selectin binding", "setting": "[8]", "result": "5-6 fold"}, {"measurement": "fold better inhibitor of P-Selectin binding", "setting": "[9]", "result": "5-6 fold"}]}
